Where “and” joins values, the source holds several entries; their conditions need not be identical. Equal entries are not always repeated.
Legend:
CLL cells (MEC-1) = test: Annexin-V / propidium iodide apoptosis test with 25%, 30%, 40%, 45% maltotriose dendrimers and FA; format: cell-based, human; details: 1.6 μM
[1] = tested on: CLL cells (leukemic lymphocytes, MNCs); test: Mitochondrial membrane potential (CMXRos / anti-glycophorin A-FITC, flow cytometry); format: cell-based, human; details: for mean percentage of cells with lower mitochondrial potential (ΔΨm^low/Gly-A^−): 1.6 μM
From the text: Mitochondrial membrane potential is an early indicator of apoptosis. CMXRos, i.e. Chloromethyl-X-rosamine (the reagent's name by Mito Tracker Red CMXRos, Molecular Probes, USA), and a monoclonal antibody to glycophorin A conjugated with FITC (the reagent's name of Anti-Glycophorin A FITC by Dako, Denmark) were used for its assessment. CMXRos is a lipophilic cationic dye that accumulates in the mitochondrial matrix of viable cells when there is an electronegative load on the inner surface of the mitochondrial membrane. This asymmetric location of protons along the inner mitochondrial membrane leads to a high mitochondrial membrane potential (ΔΨm) in living cells. A decreased ΔΨm is one of the first symptoms of apoptosis, and in effect lowering of the mitochondrial uptake of CMXRos.
The stock CMXRos solution was prepared by dilution of the substance supplied by the manufacturer in 94 μl. DMSO (dimethylsulphoxide), and stored at […]. Then working solution was prepared also using DMSO (1:10) and stored at 4° C. Mononuclear cells, i.e. leukemic lymphocytes, at 1×10^6 MNCs/ml concentration, were incubated with CMXRos (2.5 μl working solution in 500 μl RPMI 1640 medium) at 37° C. for 30 minutes. […] The samples were next measured using flow cytometry. The percentage of cells not bound to anti-glycophorin A-FITC (ΔΨm^low/GIy-A^− cells), with low mitochondrial potential, was calculated.
All fluorescence measurements were performed by a flow cytometer FACSCalibur (Becton Dickinson, USA) equipped with an argon laser 488nm and computer program CeliQuestPro (Becton Dickinson, USA). Each time 10 000cells were evaluated. The fluorescence was measured using standard emission filters: green—FL1 (wavelength λ=530±20 nm) and red—FL3 (λ>600 nm).

Row | Compound | Ann+ IP+ (late apoptosis), mean percentage of cells (CLL cells (MEC-1); 24 h) | Ann+ IP− (early apoptosis), mean percentage of cells (CLL cells (MEC-1); 24 h) | CAI (compensating apoptotic index) (CLL cells (MEC-1); 24 h) | Ann− IP+ (necrosis), mean percentage of cells (CLL cells (MEC-1); 48 h) | CAI (compensating apoptotic index) (CLL cells (MEC-1); 48 h) | mean percentage of cells with lower mitochondrial potential (ΔΨm^low/Gly-A^−) ([1]; 24 h) [%] | mean percentage of cells with lower mitochondrial potential (ΔΨm^low/Gly-A^−) ([1]; 48 h) [%] | apoptosis-inducing action (mitochondrial potential) ([1]; 10 μg/ml)
1 | Nc1nc(F)nc2c1ncn2[C@@H]1O[C@H](CO)[C@@H](O)[C@@H]1O [FA, fludarabine] | 6.51% and 10.83% and 6.50% | 3.82% and 3.98% and 3.77% | 1.87% and 7.35% and 4.40% | 22.82% and 15.00% and 20.27% | 6.98% and 7.80% and 12.83% | 52.05 | 74.49 | 
2 | rituximab |  |  |  |  |  |  |  | apoptosis-inducing action in order of spontaneous apoptosis

Source: patent US10022395B2 (UNIWERSYTET LÓDZKI, priority 2012, dated 2018)
